In brackets after ≈: the same amount, converted by molar mass. Several values for one entry are separate records, joined by “and”; a condition that tells them apart may be missing. Equal values may be shown once. Values belong to the compound of their own block, whether it stands above or below them.
Key:
Experiment in all cases: ≥ marks a high value that may be exact or a test limit, other limits are often not marked, values filed in µg/mL are converted to µM
[1] = system: Escherichia coli CGMCC 1.8732
[2] = system: Staphylococcus epidermidis CGMCC 1.4260
[3] = system: Pseudomonas aeruginosa CGMCC 1.2421
[4] = system: Staphylococcus aureus CGMCC 1.8721
[5] = system: Bacillus subtilis CGMCC 1.3376
[6] = system: Klebsiella pneumoniae CGMCC 1.1736
[7] = system: Listeria monocytogenes KCTC 3710
[8] = system: Salmonella typhimurium KCTC 1926
[9] = system: Escherichia coli CCARM 1238
[10] = system: Staphylococcus aureus CCARM 3114
[11] = system: Salmonella typhimurium CCARM 8009
[12] = system: Pseudomonas aeruginosa ATCC 27853
[13] = system: Staphylococcus aureus ATCC 25923
[14] = system: Salmonella typhimurium CCARM 8013
[15] = system: Pseudomonas aeruginosa 3592
[16] = system: Stenotrophomonas maltophilia 2
Klebsiella oxytoca = system: Klebsiella oxytoca
Staphylococcus aureus 4 = system: Staphylococcus aureus 4
Shigella dysenteriae = system: Shigella dysenteriae
Candida glabrata 1 = system: Candida glabrata 1
Aeromonas veronii = system: Aeromonas veronii
[17] = system: Escherichia coli ATCC 25922
Aeromonas hydrophila = system: Aeromonas hydrophila
Pseudomonas aeruginosa = system: Pseudomonas aeruginosa
Vibrio cholerae = system: Vibrio cholerae
[18] = system: Salmonella enterica subsp. enterica serovar Paratyphi A
Vibrio parahaemolyticus = system: Vibrio parahaemolyticus
Bacillus subtilis = system: Bacillus subtilis
Enterococcus faecalis = system: Enterococcus faecalis
Escherichia coli 1 = system: Escherichia coli 1
Acinetobacter baumannii = system: Acinetobacter baumannii
Klebsiella pneumoniae = system: Klebsiella pneumoniae
Candida albicans = system: Candida albicans
Escherichia coli = system: Escherichia coli
Nocardia asteroides = system: Nocardia asteroides
Staphylococcus aureus 1 = system: Staphylococcus aureus 1
Bacillus cereus = system: Bacillus cereus
Aspicilia cinerea = system: Aspicilia cinerea
Aeromonas sobria = system: Aeromonas sobria
Staphylococcus aureus = system: Staphylococcus aureus
[19] = system: Stenotrophomonas maltophilia
Proteus vulgaris = system: Proteus vulgaris
[20] = system: Staphylococcus epidermidis
Enterococcus faecium = system: Enterococcus faecium
Candida glabrata = system: Candida glabrata
Vibrio anguillarum = system: Vibrio anguillarum
Vibrio harveyi = system: Vibrio harveyi
Proteus mirabilis = system: Proteus mirabilis
[21] = system: Pseudomonas aeruginosa BH02
[22] = system: Pseudomonas aeruginosa BH01
[23] = system: Pseudomonas aeruginosa BH04
[24] = system: Pseudomonas aeruginosa PAO1
[25] = system: Pseudomonas aeruginosa BH03
[26] = system: Escherichia coli NBRC 3972
[27] = system: Staphylococcus aureus NBRC 13276
[28] = system: Pseudomonas aeruginosa NBRC 13275

SMILES: CC[C@H](C)[C@H](NC(=O)[C@H](Cc1c[nH]c2ccccc12)NC(=O)[C@H](CCCCN)NC(=O)[C@@H](NC(=O)[C@@H](N)CCCCN)[C@@H](C)CC)C(=O)N[C@@H](CC(C)C)C(=O)N[C@@H](CCCCN)C(=O)N[C@@H](Cc1ccc(O)cc1)C(=O)N[C@@H](Cc1c[nH]c2ccccc12)C(=O)N[C@@H](CCCCN)C(=O)N[C@@H](Cc1c[nH]c2ccccc12)C(=O)N[C@@H](CO)C(=O)O [KIKWILKYWKWS]
- MIC [7]: 4 µM (≈ 6.72 µg/mL)
- MIC [8]: 2 µM (≈ 3.36 µg/mL)
- MIC [9]: 4 µM and 8 µM
- MIC [10]: 16 µM and ≥ 32 µM
- MIC [11]: 8 µM (≈ 13.4 µg/mL)
- MIC [12]: 4 µM and 8 µM
- MIC [13]: 0.25 µM (≈ 0.42 µg/mL)
- MIC [14]: 16 µM and ≥ 32 µM
- MIC [15]: 8 µM and 16 µM

SMILES: CC(=O)N[C@@H](CCC(=O)O)C(=O)N[C@@H](CCC(=O)O)C(=O)N[C@@H](CCC(=O)O)C(=O)N[C@@H](CCC(=O)O)C(=O)N[C@@H](C)C(=O)N[C@@H](C)C(=O)N[C@@H](C)C(=O)NCC(=O)N[C@@H](Cc1c[nH]c2ccccc12)C(=O)NCC(=O)N[C@@H](CC(C)C)C(=O)N[C@@H](CCCN=C(N)N)C(=O)N[C@@H](CCCN=C(N)N)C(=O)N[C@@H](CC(C)C)C(=O)N[C@@H](CC(C)C)C(=O)N[C@@H](CCCCN)C(=O)N[C@@H](Cc1ccc(O)cc1)C(=O)NCC(=O)N[C@@H](CCCCN)C(=O)N[C@@H](CCCN=C(N)N)C(=O)N[C@@H](CO)C(N)=O [EEEEAAAGWGLRRLLKYGKRS]
- MIC [21]: 26.4 µM (≈ 65.1 µg/mL)
- MIC [22]: 26.4 µM (≈ 65.1 µg/mL)
- MIC [23]: 26.4 µM (≈ 65.1 µg/mL)
- MIC [24]: 26.4 µM (≈ 65.1 µg/mL)
- MIC [25]: 26.4 µM (≈ 65.1 µg/mL)

SMILES: CC(=O)N[C@@H](CCCCN)C(=O)N[C@@H](CCCCN)C(=O)N[C@@H](C)C(=O)N[C@@H](CCCCN)C(=O)N[C@@H](CCCCN)C(=O)N[C@@H](C)C(=O)N[C@@H](CCCCN)C(=O)N[C@@H](CCCCN)C(=O)N[C@@H](C)C(N)=O [KKAKKAKKA]
- MIC [26]: ≥ 800 µM
- MIC [27]: ≥ 800 µM
- MIC [28]: ≥ 800 µM

Continued, in another order:

- MIC [1]: 12.5 µM (≈ 32.6 µg/mL)
- MIC [2]: 3.13 µM (≈ 8.15 µg/mL)
- MIC [3]: 12.5 µM (≈ 32.6 µg/mL)
- MIC [4]: ≥ 100 µM
- MIC [5]: 12.5 µM (≈ 32.6 µg/mL)
- MIC [6]: 12.5 µM (≈ 32.6 µg/mL)
SMILES: CC[C@H](C)[C@H](NC(=O)[C@H](CO)NC(=O)CNC(=O)[C@@H](NC(=O)[C@@H](N)CCCN=C(N)N)[C@@H](C)CC)C(=O)N[C@@H](CC(C)C)C(=O)NCC(=O)N[C@@H](CCCN=C(N)N)C(=O)N[C@@H](CC(C)C)C(=O)N[C@@H](C)C(=O)N[C@@H](CCCCN)C(=O)NCC(=O)N[C@@H](CC(C)C)C(=O)N1CCC[C@H]1C(=O)N[C@H](C(=O)N[C@@H](CC(C)C)C(=O)N[C@@H](CCCN=C(N)N)C(=O)N[C@@H](CO)C(=O)N[C@@H](Cc1c[nH]c2ccccc12)C(=O)N[C@H](C(=O)N[C@@H](CCCCN)C(=O)N[C@@H](CC(N)=O)C(=O)N[C@@H](CCCN=C(N)N)C(N)=O)[C@@H](C)CC)[C@@H](C)O [RIGSILGRLAKGLPTLRSWIKNR]

- MIC [16]: 6.16 µM (≈ 18.8 µg/mL)
- MIC (Klebsiella oxytoca): ≥ 65.7 µM
- MIC (Staphylococcus aureus 4): 3.08 µM (≈ 9.38 µg/mL)
- MIC (Shigella dysenteriae): 12.3 µM (≈ 37.5 µg/mL)
- MIC (Candida glabrata 1): ≥ 65.7 µM
- MIC [17]: 3.08 µM (≈ 9.38 µg/mL)
- MIC (Aeromonas hydrophila): 12.3 µM (≈ 37.5 µg/mL)
- MIC (Pseudomonas aeruginosa): 6.16 µM (≈ 18.8 µg/mL)
- MIC [18]: 12.3 µM (≈ 37.5 µg/mL)
- MIC (Bacillus subtilis): 3.08 µM (≈ 9.38 µg/mL)
- MIC (Enterococcus faecalis): ≥ 65.7 µM
- MIC (Escherichia coli 1): 1.54 µM (≈ 4.69 µg/mL)
- MIC (Acinetobacter baumannii): ≥ 65.7 µM
- MIC (Klebsiella pneumoniae): 3.08 µM (≈ 9.38 µg/mL)
- MIC (Candida albicans): > 65.7 µM
- MIC (Escherichia coli): 4.36 µM (≈ 13.3 µg/mL)
- MIC (Nocardia asteroides): 6.16 µM (≈ 18.8 µg/mL)
- MIC (Staphylococcus aureus 1): ≥ 65.7 µM
- MIC (Bacillus cereus): ≥ 65.7 µM
- MIC (Aspicilia cinerea): ≥ 65.7 µM
- MIC (Aeromonas sobria): 12.3 µM (≈ 37.5 µg/mL)
- MIC (Staphylococcus aureus): 12.3 µM (≈ 37.5 µg/mL)
- MIC [12]: 12.3 µM (≈ 37.5 µg/mL)
- MIC [19]: ≥ 65.7 µM
- MIC (Proteus vulgaris): ≥ 65.7 µM
- MIC [13]: > 65.7 µM
- MIC [20]: ≥ 65.7 µM
- MIC (Enterococcus faecium): ≥ 65.7 µM
- MIC (Candida glabrata): 12.3 µM (≈ 37.5 µg/mL)
- MIC (Vibrio anguillarum): 6.16 µM (≈ 18.8 µg/mL)
- MIC (Vibrio harveyi): 12.3 µM (≈ 37.5 µg/mL)
- MIC (Proteus mirabilis): 3.08 µM (≈ 9.38 µg/mL)
SMILES: CC[C@H](C)[C@H](NC(=O)CNC(=O)[C@H](Cc1c[nH]c2ccccc12)NC(=O)CNC(=O)[C@H](C)NC(=O)[C@H](C)NC(=O)[C@H](CCCCN)NC(=O)[C@H](CC(C)C)NC(=O)CNC(=O)CNC(=O)[C@H](CCCN=C(N)N)NC(=O)[C@H](CC(C)C)NC(=O)[C@H](CC(C)C)NC(=O)[C@H](Cc1c[nH]c2ccccc12)NC(=O)[C@H](CC(C)C)NC(=O)[C@H](Cc1c[nH]c2ccccc12)NC(=O)[C@H](CCCN=C(N)N)NC(=O)[C@@H](N)[C@@H](C)O)C(=O)N[C@@H](CCCN=C(N)N)C(=O)N[C@@H](C)C(=O)N[C@@H](Cc1cnc[nH]1)C(=O)N[C@@H](CC(C)C)C(=O)N[C@@H](CC(N)=O)C(=O)N[C@@H](CCCN=C(N)N)C(=O)N[C@@H](CC(N)=O)C(=O)N[C@@H](CCC(N)=O)C(=O)O [TRWLWLLRGGLKAAGWGIRAHLNRNQ]
- MIC (Aeromonas veronii): 24.6 µM (≈ 75 µg/mL)
- MIC (Vibrio cholerae): 12.3 µM (≈ 37.5 µg/mL)
- MIC (Vibrio parahaemolyticus): 12.3 µM (≈ 37.5 µg/mL)

Reference: DBAASP
